Here are results for 1 substance from patent US9751851B2, “Molecules and compositions that inhibit gram negative bacteria and their uses” (THE TRUSTEES OF PRINCETON UNIVERSITY, priority 2013, dated 2017).

Test [1] has as its system A549 human lung cells infected with P. aeruginosa PA14. The test can be described thus: A549 human lung cell infection (propidium iodide uptake). It counts as cell-based. The conditions noted are these: wild-type and lasR mutant strains; 100 μM compound. The procedure: Methods. Human A549 cells were grown in CellStar tissue culture flasks. Prior to infection, the A549 cells were treated with trypsin-EDTA (CellGro), split, counted, and aliquotted into 96 well plates at 20,000 mammalian cells/well (cell counts were estimated using Trypan Blue (CellGro) exclusion). Cells were grown for 20 hr at 37° C. in DMEM (Invitrogen). Cells were washed 3× with warm PBS (Gibco). 100 μL of “master mix” was added to each well for each condition. Master mix contained 1 mL pre-warmed-PBS, 5 μL of 2 mg/mL propidium iodide (Bioprobes), 1 μL of a 100 mM inhibitor stock or DMSO, and 10 μL of OD600=2 P. aeruginosa PA14 grown in the presence of mBTL or DMSO. Infections were monitored using an EnVision plate reader every 2 hr with the RFP filter supplied by GE.

For a further test, the system named is P. aeruginosa PA14. The test can be described thus: Static culture biofilm thickness by confocal microscopy. It counts as cell-based. The procedure:
Static culture. Methods. Overnight P. aeruginosa cultures were back-diluted 1:1000 into tryptone broth with 100 μM mBTL, or an equivalent concentration of DMSO, and grown to mid-logarithmic phase (OD600=0.5). A 96-well plate with glass bottom (Thermo Fisher), which was filled with 200 μL of tryptone broth containing 100 μM mBTL or DMSO, was then inoculated with 2 μL of the mid-logarithmic culture. The 96-well plates were incubated for 24 h, prior to adding 5 μM SYTO 9 nucleic acid stain (Invitrogen). Biofilm thickness was measured using confocal microscopy (Nikon).

Consider meta-bromothiolactone [mBTL], for which the “killing of A549 cells by P. aeruginosa” value in test [1] is on record as “reduces killing”. The average biofilm height in the test with P. aeruginosa PA14 (lasR null strain, 100 μM mBTL (untreated 15.7+/−4.9)) is reported as 6.6+/−2.3 μm; with P. aeruginosa PA14 (lasR, rhlR double null strain, 100 μM mBTL (untreated 11.9+/−5.5)) it was 16.2+/−5.9 μm; with P. aeruginosa PA14 (rhlR null strain, 100 μM mBTL (untreated 25+/−10.6)), 22.1+/−7.5 μm; in the test on P. aeruginosa PA14 (wild-type, 100 μM mBTL, 24 h (untreated 27.5+/−11.5)), 10+/−4 μm.
